Reference: patent US20090304821A1, “Pharmaceutical Combination” (Takeda Pharmaceutical Company Limited, priority 2006, published 2009)

These compounds were tested against T1, human CaR (Homo sapiens, UniProt P41180) (assay: GTPγS binding assay on human CaR-expressing CHO cell membrane). Conditions: 1 μM test compound, % of binding with 6 mM calcium only, compounds marked antagonist.
T1 construct: expressed in transfected cells; cDNA amplified from human kidney cDNA (TOYOBO); membrane fraction used
T1 sequence (P41180 20-1078): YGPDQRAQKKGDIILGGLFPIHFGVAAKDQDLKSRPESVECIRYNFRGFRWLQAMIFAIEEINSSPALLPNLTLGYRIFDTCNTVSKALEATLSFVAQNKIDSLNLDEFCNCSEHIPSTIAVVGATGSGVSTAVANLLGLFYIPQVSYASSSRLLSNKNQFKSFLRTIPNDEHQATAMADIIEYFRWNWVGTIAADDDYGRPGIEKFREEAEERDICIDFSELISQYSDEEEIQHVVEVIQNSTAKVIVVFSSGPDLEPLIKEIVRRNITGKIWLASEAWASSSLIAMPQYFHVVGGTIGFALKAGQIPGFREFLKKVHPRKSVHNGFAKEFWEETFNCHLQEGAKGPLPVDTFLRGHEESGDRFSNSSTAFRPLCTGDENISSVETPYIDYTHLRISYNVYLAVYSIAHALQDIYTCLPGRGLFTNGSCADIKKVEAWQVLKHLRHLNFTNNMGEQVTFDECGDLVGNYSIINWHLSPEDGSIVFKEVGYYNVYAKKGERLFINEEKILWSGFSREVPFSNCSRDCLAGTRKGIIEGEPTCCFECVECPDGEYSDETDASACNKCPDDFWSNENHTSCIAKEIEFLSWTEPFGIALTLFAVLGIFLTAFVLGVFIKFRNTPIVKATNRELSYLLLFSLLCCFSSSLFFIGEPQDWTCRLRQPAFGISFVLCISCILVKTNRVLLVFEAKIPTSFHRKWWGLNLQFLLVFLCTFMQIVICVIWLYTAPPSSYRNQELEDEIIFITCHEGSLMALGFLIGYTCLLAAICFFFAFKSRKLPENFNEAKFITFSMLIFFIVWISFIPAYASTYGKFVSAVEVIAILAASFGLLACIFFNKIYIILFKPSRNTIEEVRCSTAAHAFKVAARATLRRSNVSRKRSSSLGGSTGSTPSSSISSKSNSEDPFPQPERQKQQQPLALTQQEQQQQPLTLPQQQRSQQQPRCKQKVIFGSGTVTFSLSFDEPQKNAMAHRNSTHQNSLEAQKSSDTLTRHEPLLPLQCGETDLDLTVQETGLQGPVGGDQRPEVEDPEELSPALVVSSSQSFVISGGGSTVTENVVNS
Type: biochemical
Method: Preparation of Membrane Fraction is Described Bellow. The human CaR-expressing CHO cells were inoculated to a F500 flask in 1.8×10^5 cells/flask followed by cultivation for 2 days. The cells were scraped with 10 ml of Phosphate-Buffered Saline containing 0.02% EDTA. After centrifugation (2000 rpm, 10 min) of the cells, the cell pellet was resuspended into 12 ml of homogenate buffer solution (10 mM NaHCO3, 1 mM EDTA, 1× Protease inhibitor cocktail (pH 7.4)) and homogenized by Polytron™ (2000 rpm, 1 min). The cell debris was removed by centrifugation (2000 rpm, 10 min), and then the CaR-expressing cell membrane fraction was collected by ultracentrifugation (Beckman 70 Ti type rotor, 30000 rpm, 1 hour).
The GTPγS binding activity was measured as follows. Twenty μg of the CaR-expressing cell membrane was incubated with test compounds for 10 min. The assays were carried out at room temperature for an hour in a reaction mixture solution containing 20 mM HEPES (pH.7.4), 100 mM NaCl, 1 mM MgCl2, 167 μg/ml DTT, 5 μM guanosine 5′-diphosphate, 0.4 nM [^35S]-guanosine 5′-(γ-thio) triphosphate ([^35S]-GTPγS) and 6 mM CaCl2. The reaction mixture was filtered through a GF/C filter. After washing four times with 300 μl of Phosphate-Buffered Saline, the amount of [^35S]-GTPγS bound to the filter was measured using a Top-count scintillation counter.
Effects of test compounds on [^35S]-GTPγS binding were expressed in percentage terms. This was calculated from the equation [100×(t′−b)]/(t−b)]. Herein, t′, t and b are values of [^35S]-GTPγS binding (dpm), t′ is a value in the presence of 6 mM calcium and the test compound, t is a value in the presence of 6 mM calcium only and b is a value in the absence of both 6 mM calcium and the test compound.

Row | Compound | [^35S]-GTPγS binding (%)
1 | COc1ccc(C(CNC(=O)c2cnn3c2NC(c2ccccc2)CC3C(F)(F)F)c2ccccc2)cc1 (stereo not shown) [Test Compound 1, N-(2-(4-methoxyphenyl)-2-phenylethyl)-5-phenyl-7-(trifluoromethyl)-4,5,6,7-tetrahydropyrazolo[1,5-a]pyrimidine-3-carboxamide] | 34 (1 μM) %
2 | COc1ccc(C(NC(=O)c2cnn3c2NC(c2ccccc2)CC3C)c2ccc(OC)cc2)cc1 (stereo not shown) [Test Compound 2, N-(bis(4-methoxyphenyl)methyl)-7-methyl-5-phenyl-4,5,6,7-tetrahydropyrazolo[1,5-a]pyrimidine-3-carboxamide] | 0 (1 μM) %
3 | CCC(CC)(NC(=O)c1cnn2c1NC(c1ccccc1)CC2C(F)(F)F)c1ccc(C(F)(F)F)cc1 (stereo not shown) [Test Compound 3, N-(1-ethyl-1-(4-(trifluoromethyl)phenyl)propyl)-5-phenyl-7-(trifluoromethyl)-4,5,6,7-tetrahydropyrazolo[1,5-a]pyrimidine-3-carboxamide] | 0 (1 μM) %

Second part, the compound after the results:

Row | [^35S]-GTPγS binding (%) | Compound
4 | 10 (1 μM) % | Cc1ccc(C(OC2CCN(C(=O)c3cnn4c3NC(c3ccccc3)CC4C(F)(F)F)CC2)c2ccc(C)cc2)cc1 (stereo not shown) [Test Compound 4, 3-((4-(bis(4-methylphenyl)methoxy)-1-piperidinyl)carbonyl)-5-phenyl-7-(trifluoromethyl)-4,5,6,7-tetrahydropyrazolo[1,5-a]pyrimidine]
5 | 12 (1 μM) % | CC1(C(F)(F)F)CC(c2ccccc2)Nc2c(C(=O)NC34CC5CC(CC(C5)C3)C4)cnn21 (stereo not shown) [Test Compound 5, N-(1-adamantyl)-7-methyl-5-phenyl-7-(trifluoromethyl)-4,5,6,7-tetrahydropyrazolo[1,5-a]pyrimidine-3-carboxamide]
6 | 0 (1 μM) % | CCC(CC)(NC(=O)c1cnn2c1NC(c1ccccc1)CC2(C)C)c1ccc(-c2ccsc2)cc1 (stereo not shown) [Test Compound 6, N-(1-ethyl-1-(4-(3-thienyl)phenyl)propyl)-7,7-dimethyl-5-phenyl-4,5,6,7-tetrahydropyrazolo[1,5-a]pyrimidine-3-carboxamide]

Same assay, conditions: 10 μM test compound, % of binding with 6 mM calcium only, compound marked agonist

Row | [^35S]-GTPγS binding (%) | Compound
7 | 256 (10 μM) % | O=C(NCC(c1ccccc1)N1CCCC1)c1cnn2c1NC(c1ccccc1)CC2C(F)(F)F (stereo not shown) [Test Compound 7, 5-phenyl-N-(2-phenyl-2-(1-pyrrolidinyl)ethyl)-7-(trifluoromethyl)-4,5,6,7-tetrahydropyrazolo[1,5-a]pyrimidine-3-carboxamide]
